# In ChEMBL document CHEMBL4024712, “Synthesis, stability and mechanistic studies of potent anticryptococcal hexapeptides” (Eur J Med Chem, 2017):
# Non-standard residues stand in square brackets, D forms with d. Residues, ends and D or L forms follow the SMILES beside them. Ala(9-anthryl) = N[C@@H](Cc1c2ccccc2cc2ccccc12)C(=O)O; His(τ-Bzl) = N[C@@H](Cc1cn(Cc2ccccc2)cn1)C(=O)O; Phe(4-Me) = Cc1ccc(C[C@H](N)C(=O)O)cc1; Bta = N[C@@H](Cc1csc2ccccc12)C(=O)O; Cha = N[C@@H](CC1CCCCC1)C(=O)O; Phg = N[C@H](C(=O)O)c1ccccc1; Orn = NCCC[C@H](N)C(=O)O
# Experiments:
# [1] = tested on: Staphylococcus aureus; assay: Anti-bacterial activity against Staphylococcus aureus ATCC 29213 by CLSI method; format: functional; settings: Staphylococcus aureus, ATCC 29213
# [2] = tested on: Mycobacterium intracellulare; assay: Bactericidal activity against Mycobacterium intracellulare ATCC 23068 after 68 to 72 hrs by Alamar blue assay; format: functional
# [3] = tested on: Escherichia coli; assay: Anti-bacterial activity against Escherichia coli ATCC 35218 by CLSI method; format: functional
# [4] = tested on: Escherichia coli; assay: Bactericidal activity against Escherichia coli ATCC 35218 by CLSI method; format: functional
# [5] = tested on: Staphylococcus aureus; assay: Anti-bacterial activity against methicillin-resistant Staphylococcus aureus ATCC 33591 by CLSI method; format: functional; settings: Staphylococcus aureus, ATCC 33591
# [6] = tested on: Vero; assay: Cytotoxicity against African green monkey Vero cells up to 10 ug/ml after 48 hrs by neutral red dye based assay; format: cell-based; settings: chlorocebus sabaeus
# [7] = tested on: Pichia kudriavzevii; assay: Antifungal activity against Candida krusei ATCC 6258 after 18 to 24 hrs by Alamar blue assay; format: functional; settings: Pichia kudriavzevii, ATCC 6258
# [8] = tested on: Nakaseomyces glabratus; assay: Antifungal activity against Candida glabrata ATCC 90030 after 18 to 24 hrs by Alamar blue assay; format: functional
# [9] = tested on: Candida albicans; assay: Antifungal activity against Candida albicans ATCC 90028 after 18 to 24 hrs by Alamar blue assay; format: functional; settings: for MIC: Candida albicans, ATCC 90028
# [10] = tested on: Aspergillus fumigatus; assay: Antifungal activity against Aspergillus fumigatus ATCC 90906 after 68 to 72 hrs by Alamar blue assay; format: functional
# [11] = tested on: Cryptococcus neoformans; assay: Antifungal activity against Cryptococcus neoformans ATCC 90113 after 68 to 72 hrs by Alamar blue assay; format: functional
# [12] = tested on: Pichia kudriavzevii; assay: Fungicidal activity against Candida krusei ATCC 6258 after 18 to 24 hrs by Alamar blue assay; format: functional
# [13] = tested on: Pseudomonas aeruginosa; assay: Anti-bacterial activity against Pseudomonas aeruginosa ATCC 27853 by CLSI method; format: functional
# [14] = tested on: Staphylococcus aureus; assay: Bactericidal activity against Staphylococcus aureus ATCC 29213 by CLSI method; format: functional
# [15] = tested on: Mycobacterium intracellulare; assay: Anti-bacterial activity against Mycobacterium intracellulare ATCC 23068 after 68 to 72 hrs by Alamar blue assay; format: functional, cell-based; settings: for MIC: Mycobacterium intracellulare, ATCC 23068
# [16] = tested on: Candida albicans; assay: Fungicidal activity against Candida albicans ATCC 90028 after 18 to 24 hrs by Alamar blue assay; format: functional
# [17] = tested on: Cryptococcus neoformans; assay: Fungicidal activity against Cryptococcus neoformans ATCC 90113 after 68 to 72 hrs by Alamar blue assay; format: functional
# [18] = tested on: Staphylococcus aureus; assay: Bactericidal activity against methicillin-resistant Staphylococcus aureus ATCC 33591 by CLSI method; format: functional
# [19] = tested on: Nakaseomyces glabratus; assay: Fungicidal activity against Candida glabrata ATCC 90030 after 18 to 24 hrs by Alamar blue assay; format: functional
# [20] = tested on: Aspergillus fumigatus; assay: Fungicidal activity against Aspergillus fumigatus ATCC 90906 after 68 to 72 hrs by Alamar blue assay; format: functional
# [21] = Nakaseomyces glabratus, ATCC 90030
# [22] = Aspergillus fumigatus, ATCC 90906
SMILES,MIC [1],MBC [2],"MIC ([3]; Escherichia coli, ATCC 35218)",MBC [4],MIC [5],Activity [6],MIC [7],IC50 [8],IC50 [9],IC50 [10],MIC [11],MFC [12],IC50 [13],MBC [14],MIC [15],MFC [16],MIC [9],MFC [17],MBC [18],"MIC [8, 21]",also measured
Cc1ccc(C[C@H](NC(=O)[C@@H](Cc2ccccc2)NC(=O)[C@@H](Cc2c[nH]c3ccccc23)NC(=O)[C@@H](N)CCCCN)C(=O)N[C@H](Cc2ccccc2)C(=O)N[C@@H](Cc2cn(Cc3ccccc3)cn2)C(N)=O)cc1 (H-K[dW][dF][Phe(4-Me)][dF][His(τ-Bzl)]-NH2),20 µg/mL,20 µg/mL,20 µg/mL,20 µg/mL,20 µg/mL,Non-Toxic,20 µg/mL,Not Active,Not Active,Not Active,2.5 µg/mL,20 µg/mL,Not Active,20 µg/mL,20 µg/mL,–,–,–,–,–,–
Cc1ccc(C[C@H](NC(=O)[C@@H](Cc2ccccc2)NC(=O)[C@@H](Cc2c[nH]c3ccccc23)NC(=O)[C@@H](N)CCCNC(=N)N)C(=O)N[C@H](Cc2ccccc2)C(=O)N[C@@H](Cc2cn(Cc3ccccc3)cn2)C(N)=O)cc1 (H-R[dW][dF][Phe(4-Me)][dF][His(τ-Bzl)]-NH2),–,10 µg/mL,10 µg/mL,20 µg/mL,20 µg/mL,Non-Toxic,20 µg/mL,Not Active,–,Not Active,2.5 µg/mL,–,Not Active,20 µg/mL,–,20 µg/mL,20 µg/mL,2.5 µg/mL,20 µg/mL,–,–
CC[C@H](C)[C@H](NC(=O)[C@H](CC1CCCCC1)NC(=O)[C@@H](Cc1c[nH]c2ccccc12)NC(=O)[C@@H](N)CCCN)C(=O)N[C@@H](Cc1c2ccccc2cc2ccccc12)C(=O)N[C@@H](Cc1cn(Cc2ccccc2)cn1)C(N)=O (H-[Orn][dW][Cha]I[Ala(9-anthryl)][His(τ-Bzl)]-NH2),5 µg/mL,–,–,–,10 µg/mL,Non-Toxic,–,–,–,Not Active,1.25 µg/mL,10 µg/mL,Not Active,–,–,20 µg/mL,–,–,10 µg/mL,20 µg/mL,IC50 [3]: Not Active; MFC [19]: 20 µg/mL; IC50 [15]: Not Active
CC[C@H](C)[C@H](NC(=O)[C@H](CC1CCCCC1)NC(=O)[C@@H](Cc1c[nH]c2ccccc12)NC(=O)[C@@H](N)CCCN)C(=O)N[C@@H](Cc1csc2ccccc12)C(=O)N[C@@H](Cc1cn(Cc2ccccc2)cn1)C(N)=O (H-[Orn][dW][Cha]I[Bta][His(τ-Bzl)]-NH2),–,–,–,–,–,Non-Toxic,–,–,Not Active,Not Active,1.25 µg/mL,20 µg/mL,Not Active,–,–,–,–,–,–,20 µg/mL,IC50 ([1]; read-out: IC50): 20 µg/mL; IC50 [3]: Not Active; MFC [19]: 20 µg/mL; IC50 [15]: Not Active
CC(C)C[C@H](NC(=O)[C@H](CC1CCCCC1)NC(=O)[C@@H](Cc1c[nH]c2ccccc12)NC(=O)[C@@H](N)CCCN)C(=O)N[C@H](Cc1ccccc1)C(=O)N[C@@H](Cc1cn(Cc2ccccc2)cn1)C(N)=O (H-[Orn][dW][Cha]L[dF][His(τ-Bzl)]-NH2),–,20 µg/mL,–,–,–,Non-Toxic,20 µg/mL,Not Active,Not Active,Not Active,5 µg/mL,20 µg/mL,Not Active,20 µg/mL,20 µg/mL,–,–,–,–,–,IC50 [3]: Not Active
NCCC[C@H](N)C(=O)N[C@H](Cc1c[nH]c2ccccc12)C(=O)N[C@@H](CC1CCCCC1)C(=O)N[C@@H](Cc1csc2ccccc12)C(=O)N[C@H](Cc1ccccc1)C(=O)N[C@@H](Cc1cn(Cc2ccccc2)cn1)C(N)=O (H-[Orn][dW][Cha][Bta][dF][His(τ-Bzl)]-NH2),–,–,–,20 µg/mL,10 µg/mL,Non-Toxic,10 µg/mL,–,–,–,–,10 µg/mL,–,10 µg/mL,–,–,10 µg/mL,1.25 µg/mL,20 µg/mL,10 µg/mL,"IC50 ([7]; read-out: IC50): 6.51 µg/mL; MIC [10, 22]: 10 µg/mL; MFC [19]: 10 µg/mL; MFC [20]: 10 µg/mL; IC50 [15]: Not Active"
NCCC[C@H](N)C(=O)N[C@H](Cc1c[nH]c2ccccc12)C(=O)N[C@@H](CC1CCCCC1)C(=O)N[C@@H](CC1CCCCC1)C(=O)N[C@H](Cc1ccccc1)C(=O)N[C@@H](Cc1cn(Cc2ccccc2)cn1)C(N)=O (H-[Orn][dW][Cha][Cha][dF][His(τ-Bzl)]-NH2),10 µg/mL,–,20 µg/mL,20 µg/mL,–,Non-Toxic,10 µg/mL,Not Active,–,–,1.25 µg/mL,10 µg/mL,Not Active,–,–,10 µg/mL,10 µg/mL,–,20 µg/mL,–,"IC50 ([3]; Escherichia coli, ATCC 35218, read-out: IC50): 10 µg/mL; MIC [10, 22]: 20 µg/mL; MFC [20]: 20 µg/mL"
NCCC[C@H](N)C(=O)N[C@H](Cc1c[nH]c2ccccc12)C(=O)N[C@@H](CC1CCCCC1)C(=O)N[C@H](C(=O)N[C@H](Cc1ccccc1)C(=O)N[C@@H](Cc1cn(Cc2ccccc2)cn1)C(N)=O)c1ccccc1 (H-[Orn][dW][Cha][Phg][dF][His(τ-Bzl)]-NH2),20 µg/mL,10 µg/mL,–,–,20 µg/mL,Non-Toxic,10 µg/mL,Not Active,–,Not Active,–,10 µg/mL,Not Active,20 µg/mL,–,–,20 µg/mL,–,20 µg/mL,–,–
CC[C@@H](C)[C@@H](NC(=O)[C@H](CC1CCCCC1)NC(=O)[C@@H](Cc1c[nH]c2ccccc12)NC(=O)[C@@H](N)CCCN)C(=O)N[C@H](Cc1ccccc1)C(=O)N[C@@H](Cc1cn(Cc2ccccc2)cn1)C(N)=O (H-[Orn][dW][Cha][dI][dF][His(τ-Bzl)]-NH2),20 µg/mL,20 µg/mL,20 µg/mL,20 µg/mL,–,–,10 µg/mL,–,–,–,–,10 µg/mL,–,20 µg/mL,20 µg/mL,–,20 µg/mL,2.5 µg/mL,–,–,–
C[C@@H]1[C@H](O)[C@@H](C)/C=C/C=C/C=C/C=C/C=C/C=C/C=C/[C@H](O[C@@H]2O[C@H](C)[C@@H](O)[C@H](N)[C@@H]2O)C[C@@H]2O[C@](O)(C[C@@H](O)C[C@@H](O)[C@H](O)CC[C@@H](O)C[C@@H](O)CC(=O)O[C@H]1C)C[C@H](O)[C@H]2C(=O)O [AMPHOTERICIN B],–,–,–,–,–,–,–,–,–,–,–,–,–,–,–,–,–,–,–,0.63 µg/mL,"IC50 ([8]; Nakaseomyces glabratus, ATCC 90030, read-out: IC50): 0.34 µg/mL; IC50 ([10]; Aspergillus fumigatus, ATCC 90906, read-out: IC50): 1.2 µg/mL; MFC [20]: 5 µg/mL"
